Assay results reported in the Deep4Chem optical property database.
Values joined by “and” are separate entries in the source; they are usually repeats but may differ in a detail not shown here. Identical values can stand only once.

Test: solvent given as SMILES
[1] = in c1ccc2c(c1)c1ccccc1n2-c1ccc(-c2ccc(-n3c4ccccc4c4ccccc43)cc2)cc1

`Cc1c(C)c(B(c2c(C)c(C)c(N3c4ccccc4Oc4ccccc43)c(C)c2C)c2c(C)c(C)c(N3c4ccccc4Oc4ccccc43)c(C)c2C)c(C)c(C)c1C#N` gave an emission maximum (in c1ccc([Si](c2ccccc2)(c2ccc(-n3c4ccccc4c4ccccc43)cc2)c2ccc(-n3c4ccccc4c4ccccc43)cc2)cc1) of 517 nm.
`CC1=CC(c2ccc3cc(N(C)C)ccc3c2)=[O+][B-](F)(F)O1` showed an emission maximum (in C1CCOC1) of 566 nm, an emission maximum (in CC#N) of 611 nm and an emission maximum (in CC(C)=O) of 492 nm. For the same molecule, the emission maximum (in CS(C)=O) was 624 nm, the emission maximum (in Cc1ccccc1) was 521 nm and the emission maximum (in ClC(Cl)Cl) was 552 nm. The emission maximum (in ClCCl) was 574 nm.
With `CC(=O)Nc1cc2ccc3cccc4ccc(c1)c2c34` the emission maximum (in CC#N) was 388 nm, the emission maximum (in CCCCOCCCC) was 389 nm and the emission maximum (in CO) was 387 nm.
Work on `N#Cc1cc(-n2c3ccccc3c3ccccc32)c(-n2c3ccccc3c3ccccc32)cc1C#N` yielded an emission maximum (in C1CCOC1) of 501 nm, an emission maximum (in Cc1ccccc1) of 473 nm and an emission maximum [1] of 474 nm.
`CCCCCCCCCCc1cc(-c2cc(CCCCCCCCCC)c(-c3cccs3)s2)sc1-c1cccs1` showed an emission maximum (in CCCCCCCCCCCCCC) of 481 nm.
Molecule `O=c1oc2ccccc2nc1-c1ccc(Cl)cc1` has an emission maximum (in c1ccccc1) of 440 nm.
With `COC(=O)/C=C/c1ccc2ccc3cccc4ccc1c2c34` the emission maximum (in C1CCOC1) was 425.5 nm, the emission maximum (in C1COCCO1) was 422.5 nm and the emission maximum (in C=CC#N) was 447.5 nm. The emission maximum (in CC#N) was 450 nm, the emission maximum (in CC(C)=O) was 438 nm and the emission maximum (in CCCCCC) was 406.5 nm. It also gave an emission maximum (in CCOC(C)=O) of 423 nm, an emission maximum (in CO) of 462.5 nm and an emission maximum (in Cc1ccccc1) of 423 nm. It also gave an emission maximum (in ClCCl) of 442 nm.
`COc1ccc(-c2ccc(-c3ccc(C#N)cc3)cc2)cc1` gave an emission maximum (in C1CCCCC1) of 377 nm.
`Cc1cc(-c2ccc(-c3nc4ccccc4[nH]3)cc2)c(C)cc1-c1ccc(-c2nc3ccccc3[nH]2)cc1` showed an emission maximum (in CN(C)C=O) of 401 nm.
Molecule `CC[N+](CC)=c1ccc2c(-c3ccccc3C(=O)O)c3c(=O)oc4cc5c(cc4c3oc-2c1)CCCN5C` has an emission maximum (in CCO) of 651 nm, an emission maximum (in ClC(Cl)Cl) of 647 nm and an emission maximum (in O) of 658 nm.
Work on `Cc1cc(C)c(C2=C3C=CC=[N+]3[B-]3(F)Oc4cc(O)cc5c6ccc(C)cc6c6cc2n3c6c45)c(C)c1` (centres undefined) yielded an emission maximum (in ClC(Cl)Cl) of 649 nm.
`CCCCCCCCCCCCOc1cc2cc(N(C)C)ccc2cc1C=O` showed an emission maximum (in C1CCOC1) of 448 nm, an emission maximum (in CC#N) of 485 nm and an emission maximum (in CCCCCC) of 415 nm. It also gave an emission maximum (in CCO) of 521 nm, an emission maximum (in CCOC(C)=O) of 450 nm and an emission maximum (in CS(C)=O) of 494 nm. It also gave an emission maximum (in ClCCl) of 469 nm and an emission maximum (in O) of 504 nm.
`CN1C(=CC2=C([O-])C(=CC3=[N+](C)c4ccccc4C3(C)C)C2=O)C(C)(C)c2ccccc21` gave an emission maximum (in ClC(Cl)Cl) of 643 nm.
`Cc1c(C)n2c(COC(=O)c3ccc(F)cc3)c(C)c(=O)n2c1=O` gave an emission maximum (in CCO) of 460 nm.
For `CN(C)c1ccc(-c2cc(-c3ccc4ccccc4c3)nc(-c3ccccc3)n2)cc1`, the emission maximum (in C1CCCCC1) was 422 nm, the emission maximum (in CS(C)=O) was 599 nm and the emission maximum (in ClC(Cl)Cl) was 510 nm.
With `CCN1C(=O)C(C2C(=O)c3c4ccccc4cc4cc5ccccc5c2c34)C(=O)N(CC)C1=S` (centres undefined) the emission maximum (in C1CCOC1) was 571 nm, the emission maximum (in CCCCCC) was 544 nm and the emission maximum (in Cc1ccccc1) was 564 nm. It also gave an emission maximum (in ClCCl) of 582 nm.
With `O=C(O)c1ccc2cc3cc(C(=O)O)ccc3cc2c1` the emission maximum (in C1CCOC1) was 419 nm and the emission maximum (in CN(C)C=O) was 423 nm.
`COC(=O)c1ccc(/C=C2\C=C(c3ccccc3)OC2=O)cc1` showed an emission maximum (in C1COCCO1) of 495 nm.
In the case of `COc1ccc(C#Cc2nc(C#Cc3ccc(OC)cc3)c(C#Cc3ccc(OC)cc3)c(C#Cc3ccc(OC)cc3)c2C#Cc2ccc(OC)cc2)cc1`, the emission maximum (in ClCCl) is reported as 459 nm.
`COc1ccc(/C=C/C2=[O+][B-](F)(F)OC(/C=C/c3ccc(OC)cc3)=C2c2cccc(OC)c2)cc1` showed an emission maximum (in ClCCl) of 556 nm.
Work on `CN(C)CCCN1c2ccccc2Sc2ccc(Cl)cc21` yielded an emission maximum (in CC#N) of 451 nm, an emission maximum (in CO) of 449 nm and an emission maximum (in O) of 453 nm.
`CCN1C(=CC2=C([O-])C(=Cc3sc4ccccc4[n+]3CC)C2=O)Sc2ccccc21` gave an emission maximum (in CO) of 663 nm and an emission maximum (in ClC(Cl)Cl) of 687 nm.
`CC1=CC(C)=[N+]2C1=C(C)c1cccn1[B-]2(F)F` gave an emission maximum (in CCCCCC) of 498 nm, an emission maximum (in CO) of 497 nm and an emission maximum (in ClCCl) of 500 nm.
`CC(C)(C)c1ccc(Oc2cc3c4c(cc(Oc5ccc(C(C)(C)C)cc5)c5c6c(Oc7ccc(C(C)(C)C)cc7)cc7c8c(cc(Oc9ccc(C(C)(C)C)cc9)c(c2c45)c86)C(=O)N(c2ccccc2)C7=O)C(=O)N(c2ccccc2)C3=O)cc1` showed an emission maximum (in ClC(Cl)Cl) of 617 nm.
In the case of `CCN(CC)c1ccc2cc(-c3nc4ccccc4s3)c(=O)oc2c1`, the emission maximum (in C1CCCCC1) is reported as 462 nm, the emission maximum (in CC1CCCCC1) is reported as 462 nm and the emission maximum (in CC#N) is reported as 501 nm and 506.6 nm. For the same molecule, the emission maximum (in CCC(C)CC) was 461.6 nm, the emission maximum (in CCCCCC) was 463 nm and the emission maximum (in CCO) was 505 nm. The emission maximum (in CCOC(C)=O) was 492.8 nm.
For `c1ccc2c(c1)c1ccccc1n2-c1ccc2cc(-c3ccc(-c4ccc(-c5cc6ccc(-n7c8ccccc8c8ccccc87)cc6o5)cc4)cc3)oc2c1`, the emission maximum (in Cc1ccccc1) was 419 nm and the emission maximum [1] was 441 nm.
For `CC(C)(C)c1ccc(-c2c(-c3cccc(-n4c5ccccc5c5ccccc54)c3)c(C#N)c(-c3cccc(-n4c5ccccc5c5ccccc54)c3)c(-c3ccc(C(C)(C)C)cc3)c2-c2ccc(C(C)(C)C)cc2)cc1`, the emission maximum (in C1CCOC1) was 412 nm.
`CN(C)c1ccc(/C=C/c2nc3cc(Br)ccc3nc2-c2ccccc2)cc1` showed an emission maximum (in C1COCCO1) of 555 nm, an emission maximum (in CC#N) of 643 nm and an emission maximum (in ClCCl) of 601 nm.
With `CCCCCCCCCc1c2ccccc2cc2c1oc1c3oc4c5oc6cc7ccccc7cc6c5c5ccccc5c4c3c3ccccc3c21` the emission maximum (in C1CCOC1) was 428 nm.
With `CC(C)(C)c1ccc2c(c1)c1cc(C(C)(C)C)ccc1n2-c1ccc(C#Cc2ccc(C#Cc3ccc(-n4c5ccc(C(C)(C)C)cc5c5cc(C(C)(C)C)ccc54)cc3)cc2)cc1` the emission maximum (in CC#N) was 470 nm, the emission maximum (in CCCCC) was 385 nm and the emission maximum (in CO) was 453 nm. It also gave an emission maximum (in Cc1ccccc1) of 400 nm, an emission maximum (in ClC(Cl)Cl) of 419 nm and an emission maximum (in ClCCl) of 437 nm.
With `COc1ccc2cc([C@H](C)C(=O)O)ccc2c1` the emission maximum (in C1CCOC1) was 351.7 nm, the emission maximum (in CC#N) was 352.7 nm and the emission maximum (in CC(C)O) was 351.3 nm. The emission maximum (in CCCCO) was 351.4 nm, the emission maximum (in CCO) was 352.3 nm and the emission maximum (in CO) was 352.2 nm. For the same molecule, the emission maximum (in ClCCl) was 353.1 nm and the emission maximum (in O) was 355.5 nm.
Work on `CC(=O)Nc1ccc2ccc3cccc4ccc1c2c34` yielded an emission maximum (in CC#N) of 386 nm, an emission maximum (in CCCCOCCCC) of 385 nm and an emission maximum (in CO) of 383 nm.
Molecule `CCCCCCCCCCCCCCCCN(CCCCCCCCCCCCCCCC)c1ccc(/C=C/c2cc[n+](Cc3cc(C[n+]4ccc(/C=C/c5ccc(N(CCCCCCCCCCCCCCCC)CCCCCCCCCCCCCCCC)cc5)cc4)cc(C[n+]4ccc(/C=C/c5ccc(N(CCCCCCCCCCCCCCCC)CCCCCCCCCCCCCCCC)cc5)cc4)c3)cc2)cc1` has an emission maximum (in C1COCCO1) of 578 nm, an emission maximum (in CC(C)O) of 613 nm and an emission maximum (in CCCCCC) of 630 nm. The emission maximum (in CCCCCCCCO) was 589 nm, the emission maximum (in CCCCO) was 612 nm and the emission maximum (in CCCO) was 617 nm. For the same molecule, the emission maximum (in CCO) was 621 nm, the emission maximum (in CO) was 624 nm and the emission maximum (in CS(C)=O) was 615 nm. The emission maximum (in Cc1ccc(C)cc1) was 556 nm, the emission maximum (in Cc1ccccc1) was 559 nm and the emission maximum (in ClC(Cl)Cl) was 587 nm. It also gave an emission maximum (in ClCCl) of 606 nm and an emission maximum (in c1ccccc1) of 562 nm.
Molecule `c1ccc(-c2ccc(-c3nc(-c4ccccc4)c(N(c4ccccc4)c4ccccc4)[se]3)cc2)cc1` has an emission maximum (in ClC(Cl)Cl) of 468 nm.
With `CC(C)[Si]1(C(C)C)c2cc(C#N)ccc2-c2ccc(N(c3ccccc3)c3ccccc3)cc21` the emission maximum (in C1CCCCC1) was 413 nm, the emission maximum (in CC#N) was 500 nm and the emission maximum (in CCO) was 482 nm. It also gave an emission maximum (in CCOCC) of 436 nm, an emission maximum (in CS(C)=O) of 500 nm and an emission maximum (in ClCCl) of 470 nm. It also gave an emission maximum (in c1ccccc1) of 432 nm.
In the case of `C=CCNS(=O)(=O)c1ccc2c(c1)C(=O)/C(=C1\Sc3ccc(S(=O)(=O)NCC=C)cc3C1=O)S2`, the emission maximum (in CN(C)C=O) is reported as 604 nm and the emission maximum (in CS(C)=O) is reported as 625 nm.
For `CC(=O)Nc1ccc2c(c1)c(=O)c1ccccc1n2CCCCCC(=O)O`, the emission maximum (in O) was 450 nm.
`Cc1ccc2nc(-c3cccc4nc(C)[nH]c(=O)c34)[nH]c2c1` gave an emission maximum (in CN(C)C=O) of 431 nm.
In the case of `COC(=O)C(NC(=O)OC(C)(C)C)c1ccc2oc(-c3ccc(F)cc3)nc2c1` (centres undefined), the emission maximum (in CC1CCCCC1) is reported as 320 nm, the emission maximum (in CC#N) is reported as 341 nm and the emission maximum (in CO) is reported as 342 nm.
Work on `COc1ccc(-c2cnc(-c3cccnc3)o2)cc1OC` yielded an emission maximum (in ClCCl) of 420 nm.
Molecule `CC(C)c1cccc(C(C)C)c1N1C(=O)c2cccc3c(Oc4ccc(Cl)cc4)ccc(c23)C1=O` has an emission maximum (in ClCCl) of 423 nm.
With `CC1=CC(C)=[N+]2C1=Cc1c3ccccc3c(C#Cc3ccsc3)n1[B-]2(F)F` the emission maximum (in CCCCCC) was 615 nm, the emission maximum (in CCCCCCCCO) was 621 nm and the emission maximum (in CCOC(C)=O) was 616 nm. The emission maximum (in CN(C)C=O) was 623 nm and the emission maximum (in ClCCl) was 628 nm.
Work on `CC(C)[Si](C#Cc1ccc(C#C[Si](C(C)C)(C(C)C)C(C)C)c2nc3c4ccccc4c(=O)c4ccccc4c3nc12)(C(C)C)C(C)C` yielded an emission maximum (in ClCCl) of 455 nm.
For `Cc1cn2cc(-c3ccc(-c4ccccc4)cc3)[n-][n+]2c1`, the emission maximum (in ClCCl) was 466 nm.
Work on `CN(C)c1cccc(/C=C/c2ncc(-c3ccc(OCc4ccccc4)c(OCc4ccccc4)c3)o2)c1` yielded an emission maximum (in ClCCl) of 490 nm.
With `CCC1=C(CC)c2cccc3c2c(cc2nc4ccccc4nc23)O1` the emission maximum (in ClCCl) was 563 nm.
`Nc1ccc2c(c1)oc(=O)c1c(=O)oc3ccccc3c12` showed an emission maximum (in CS(C)=O) of 534 nm and an emission maximum (in ClCCl) of 498 nm.
`COC(=O)c1ccc2ccc3cccc4ccc1c2c34` gave an emission maximum (in C1CCOC1) of 388 nm, an emission maximum (in CC#N) of 389 nm and an emission maximum (in CCCCCC) of 385 nm. For the same molecule, the emission maximum (in CCO) was 391 nm, the emission maximum (in CN(C)C=O) was 391 nm and the emission maximum (in CO) was 392 nm. It also gave an emission maximum (in Cc1ccccc1) of 390 nm and an emission maximum (in ClCCl) of 390 nm.
